In US10821115B2, “Compounds that inhibit Mcl-1 protein” (priority 2017, dated 2020):
Where two headings read alike, the source gives them in different places.

Tests used:
[1] = target: recombinant human Mcl-1 (residues 171-327) / Bim interaction (Homo sapiens (Human), UniProt Q07820); test: biochemical; assay type: binding; conditions: read-out: Mcl-1 HTRF IC50
[2] = system: human multiple myeloma cell line, OPM-2; test: Cell viability assay (OPM-2 10 FBS), CellTiter-Glo; assay type: cell-based
Summary of the method: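 IC50 values come from 4-parameter logistic fits of luminescence signals reflecting cell viability. Treatment lasted 16 h at 37 °C in complete medium with 10% FBS, starting from 3000 cells/well.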

[3] = Homo sapiens, OPM-2, 16 h, read-out: OPM-2 10% FBS IC50 IP, OPM-2 cells, 10% FBS, 16 h, CellTiter-Glo
[4] = TR-FRET, Mcl-1(171-327) / biotin-Bim (51-76)
[5] = 0.1 nM Mcl-1(171-327), 0.05 nM biotin-Bim (51-76)

Chain of recombinant human Mcl-1 (residues 171-327) / Bim interaction (Q07820 171-327): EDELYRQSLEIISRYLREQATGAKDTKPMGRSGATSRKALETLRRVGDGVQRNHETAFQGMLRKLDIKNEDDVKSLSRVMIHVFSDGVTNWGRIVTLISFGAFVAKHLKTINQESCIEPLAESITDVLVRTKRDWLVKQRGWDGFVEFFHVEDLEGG

SMILES | IC50 [2, 3] [nM] | IC50 [1, 4] [nM] | IC50 [1, 5] [nM] | other results
CO[C@@]1(CC(=O)C(C)C)/C=C/C[C@H](C)[C@@H](C)S(=O)(=O)NC(=O)c2ccc3c(c2)N(C[C@@H]2CC[C@H]21)C[C@@]1(CCCc2cc(Cl)ccc21)CO3 [Example 100373, (1S,3′R,6′R,7′S,8′E,11′S,12′R)-6-chloro-7′-methoxy-11′,12′-dimethyl-7′-(3-methyl-2-oxobutyl)-3,4-dihydro-2H,15′H-spiro[naphthalene-1,22′-[20]oxa[13]thia[1,14]diazatetracyclo [14.7.2.0~3,6~.0~19,24~]pentacosa[8,16,18,24]tetraen]-15′-one 13′,13′-dioxide] | 736 |  |  | IC50 [1]: 0.318 nM
C[C@@H]1[C@@H](C)C/C=C/[C@](O)(CCO)[C@@H]2CC[C@H]2CN2C[C@@]3(CCCc4cc(Cl)ccc43)COc3ccc(cc32)C(=O)NS1(=O)=O [Example 100175, (1S,3′R,6′R,7′R,8′E,11′S,12′R)-6-chloro-7′-hydroxy-7′-(2-hydroxyethyl)-11′,12′-dimethyl-3,4-dihydro-2H,15′H-spiro[naphthalene-1,22′-[20]oxa[13]thia[1,14]diazatetracyclo [14.7.2.0~3,6~.0~19,24~]pentacosa[8,16,18,24]tetraen]-15′-one 13′,13′-dioxide] | 452 | 0.149 |  | 
C[C@@H]1[C@@H](C)CCCC2(CN3CCOC[C@H]3CO2)[C@@H]2CC[C@H]2CN2C[C@@]3(CCCc4cc(Cl)ccc43)COc3ccc(cc32)C(=O)NS1(=O)=O (stereo partly drawn) [Example 400, (1S,3′R,6′R,7′S,9a″S,11′S,12′R)-6-chloro-11′,12′-dimethyl-3,4,6″,7″,9″,9a″-hexahydro-1″H,2H,15′H-dispiro[naphthalene-1,22′-[20]oxa[13]thia[1,14]diazatetracyclo[14.7.2.0-3,6˜.0˜19,24˜]pentacosa[16,18,24]triene-7′,3″-[1,4]oxazino[3,4-c][1,4]oxazin]-15′-one 13′,13′-dioxide] |  |  | 1.1 | IC50 ([2]; read-out: OPM-2 10% FBS IC50 IP, OPM-2 cells, 10% FBS, 16 h incubation): 2870 nM
COC[C@]1(O)/C=C/C[C@H](C)[C@@H](C)S(=O)(=O)NC(=O)c2ccc3c(c2)N(C[C@@H]2CC[C@H]21)C[C@@]1(CCCc2cc(Cl)ccc21)CO3 [Example 100378, (1S,3′R,6′R,7′S,8′E,11′S,12′R)-6-chloro-7′-hydroxy-7′-(methoxymethyl)-11′,12′-dimethyl-3,4-dihydro-2H,15′H-spiro[naphthalene-1,22′-[20]oxa[13]thia[1,14]diazatetracyclo [14.7.2.0~3,6~.0~19,24~]pentacosa[8,16,18,24]tetraen]-15′-one 13′,13′-dioxide] | 111 | 0.037 |  | 
C[C@@H]1[C@@H](C)C/C=C/[C@](O)([C@H](O)C(=O)N(C)C)[C@@H]2CC[C@H]2CN2C[C@@]3(CCCc4cc(Cl)ccc43)COc3ccc(cc32)C(=O)NS1(=O)=O [Example 100290, (2S)-2-((1S,3′R,6′R,7′R,8′E,11′S,12′R)-6-chloro-7′-hydroxy-11′,12′-dimethyl-13′,13′-dioxido-15′-oxo-3,4-dihydro-2H-spiro[naphthalene-1,22′-[20]oxa[13]thia[1,14]diazatetracyclo [14.7.2.0~3,6~.0~19,24~]pentacosa[8,16,18,24]tetraen]-7′-yl)-2-hydroxy-N,N-dimethylethanamide] | 259 | 0.116 |  | 
CO[C@@]1(CN2CCN3C(=O)[C@H](C)OC[C@@H]3C2)/C=C/C[C@H](C)[C@@H](C)S(=O)(=O)NC(=O)c2ccc3c(c2)N(C[C@@H]2CC[C@H]21)C[C@@]1(CCCc2cc(Cl)ccc21)CO3 [Example 143, (1S,3′R,6′R,7′S,8′E,11′S,12′R)-6-chloro-7′-methoxy-11′,12′-dimethyl-7′-(((3S,9aS)-3-methyl-4-oxohexahydropyrazino[2,1-c][1,4]oxazin-8(1H)-yl)methyl)-3,4-dihydro-2H,15′H-spiro[naphthalene-1,22′-[20]oxa[13]thia[1,14]diazatetracyclo [14.7.2.0~3,6~.0~19,24~]pentacosa[8,16,18,24]tetraen]-15′-one 13′,13′-dioxide] |  |  | 0.432 | IC50 ([2]; Homo sapiens, OPM-2, 16 h, read-out: OPM-2 10% FBS IC50 IP, OPM-2 cells, 10% FBS, 16 h incubation): 219 nM
